The target in assay [1] is T1, Ephrin type-B receptor 4 (Homo sapiens) (UniProt P54760).
T1 sequence (whole entry): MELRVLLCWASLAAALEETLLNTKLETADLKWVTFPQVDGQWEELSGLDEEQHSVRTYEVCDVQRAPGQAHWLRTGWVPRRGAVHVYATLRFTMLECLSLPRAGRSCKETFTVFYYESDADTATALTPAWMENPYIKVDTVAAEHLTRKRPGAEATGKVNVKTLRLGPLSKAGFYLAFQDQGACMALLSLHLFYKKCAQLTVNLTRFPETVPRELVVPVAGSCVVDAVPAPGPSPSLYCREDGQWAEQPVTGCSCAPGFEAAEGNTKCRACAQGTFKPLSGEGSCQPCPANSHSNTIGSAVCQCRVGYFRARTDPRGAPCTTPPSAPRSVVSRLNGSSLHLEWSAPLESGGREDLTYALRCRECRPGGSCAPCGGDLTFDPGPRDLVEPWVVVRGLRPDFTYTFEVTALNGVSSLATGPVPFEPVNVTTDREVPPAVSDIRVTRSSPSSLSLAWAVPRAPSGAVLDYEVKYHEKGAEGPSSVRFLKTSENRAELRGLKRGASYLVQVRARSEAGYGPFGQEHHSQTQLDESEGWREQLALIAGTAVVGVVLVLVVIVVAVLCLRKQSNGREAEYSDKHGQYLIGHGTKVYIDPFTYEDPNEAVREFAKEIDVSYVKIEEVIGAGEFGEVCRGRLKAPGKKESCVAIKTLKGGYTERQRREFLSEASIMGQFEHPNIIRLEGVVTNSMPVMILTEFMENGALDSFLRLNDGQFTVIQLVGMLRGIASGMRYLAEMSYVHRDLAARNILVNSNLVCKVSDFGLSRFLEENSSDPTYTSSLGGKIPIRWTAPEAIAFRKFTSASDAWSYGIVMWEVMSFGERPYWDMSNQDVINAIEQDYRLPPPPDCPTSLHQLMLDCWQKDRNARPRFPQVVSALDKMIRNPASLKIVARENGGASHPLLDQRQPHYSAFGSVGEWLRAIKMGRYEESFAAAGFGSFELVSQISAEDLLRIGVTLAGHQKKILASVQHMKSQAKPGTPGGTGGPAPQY
Particulars: at 10 µM.

Assay [2] addresses TGF-beta receptor type-2 (Homo sapiens) (UniProt P37173). Particulars: at 10 µM.
In assay [3] the target is T2, Serine/threonine-protein kinase Nek2 (Homo sapiens) (UniProt P51955).
T2 sequence (whole entry): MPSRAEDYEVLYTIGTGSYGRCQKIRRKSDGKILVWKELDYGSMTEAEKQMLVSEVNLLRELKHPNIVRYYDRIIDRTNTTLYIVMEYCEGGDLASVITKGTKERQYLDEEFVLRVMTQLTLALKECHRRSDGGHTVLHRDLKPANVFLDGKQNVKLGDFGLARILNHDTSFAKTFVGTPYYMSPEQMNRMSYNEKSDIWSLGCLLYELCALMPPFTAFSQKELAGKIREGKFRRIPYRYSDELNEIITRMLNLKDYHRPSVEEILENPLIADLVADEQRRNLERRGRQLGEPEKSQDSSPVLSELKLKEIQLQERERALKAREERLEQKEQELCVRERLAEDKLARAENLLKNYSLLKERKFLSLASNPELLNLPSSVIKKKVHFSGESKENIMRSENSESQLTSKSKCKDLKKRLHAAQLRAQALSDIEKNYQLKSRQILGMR
As to the kind of experiment: Selectivity interaction (Millipore kinase profiler) EUB0000124b NEK2. The following applies: at 10 µM.

Assay [4] addresses Bone morphogenetic protein receptor type-1B (Homo sapiens, UniProt O00238). As to the kind of experiment: Selectivity interaction (KinomeScan (DiscoverX)) EUB0000045b BMPR1B.
Assay [5] has as its target T3, Serine/threonine-protein kinase RIO3 (Homo sapiens) (UniProt O14730).
T3 sequence (whole entry): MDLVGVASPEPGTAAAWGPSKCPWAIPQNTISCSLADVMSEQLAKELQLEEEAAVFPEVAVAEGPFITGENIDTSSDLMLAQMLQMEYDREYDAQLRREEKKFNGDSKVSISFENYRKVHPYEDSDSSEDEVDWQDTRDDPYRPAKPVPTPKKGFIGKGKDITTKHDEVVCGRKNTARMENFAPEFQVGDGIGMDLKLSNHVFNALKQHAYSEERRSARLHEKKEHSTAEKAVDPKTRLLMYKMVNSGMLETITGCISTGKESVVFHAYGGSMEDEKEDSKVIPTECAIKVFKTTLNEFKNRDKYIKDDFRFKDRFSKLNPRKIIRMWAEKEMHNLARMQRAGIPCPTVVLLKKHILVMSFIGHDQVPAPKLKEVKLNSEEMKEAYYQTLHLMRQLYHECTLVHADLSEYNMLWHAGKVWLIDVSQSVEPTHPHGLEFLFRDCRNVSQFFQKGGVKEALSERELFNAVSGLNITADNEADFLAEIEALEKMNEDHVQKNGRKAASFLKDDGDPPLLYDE
As to the kind of experiment: Selectivity interaction (KinomeScan (DiscoverX)) EUB0000666a RIOK3. Particulars: at 10 µM.

For assay [6], the target named is SRSF protein kinase 3 (Homo sapiens) (UniProt Q9UPE1). In words: Selectivity interaction (KinomeScan (DiscoverX)) EUB0000666a SRPK3. Particulars: at 10 µM.
In assay [7] the target is Dual specificity mitogen-activated protein kinase kinase 1 (Homo sapiens, UniProt Q02750). As to the kind of experiment: Selectivity interaction (Kinase panel (Invitrogen)) EUB0000639a MAP2K1. The following applies: at 200 nM.
Assay [8] deals with Cyclin-dependent kinase 15 (Homo sapiens) (UniProt Q96Q40). In words: Selectivity interaction (KinomeScan (DiscoverX)) EUB0000229b CDK15. The following applies: at 10 µM.
Assay [9] deals with T4, Aurora kinase A (Homo sapiens) (UniProt O14965).
T4 sequence (whole entry): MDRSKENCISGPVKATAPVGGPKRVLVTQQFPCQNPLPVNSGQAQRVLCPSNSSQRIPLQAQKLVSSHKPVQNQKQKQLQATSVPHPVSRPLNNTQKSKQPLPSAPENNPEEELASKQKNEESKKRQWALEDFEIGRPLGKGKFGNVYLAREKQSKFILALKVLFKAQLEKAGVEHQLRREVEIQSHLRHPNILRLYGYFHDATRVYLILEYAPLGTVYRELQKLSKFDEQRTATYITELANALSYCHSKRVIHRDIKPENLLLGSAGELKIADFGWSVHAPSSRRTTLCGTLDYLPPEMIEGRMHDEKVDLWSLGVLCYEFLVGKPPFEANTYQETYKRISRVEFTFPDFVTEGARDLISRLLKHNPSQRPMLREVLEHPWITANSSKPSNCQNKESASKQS
In words: Selectivity interaction (Kinase panel (DSF assay)) EUB0001559a STK6. On the technique in general: Differential scanning fluorimetry follows unfolding on heating by fluorescence.

Assay [10] deals with Mitogen-activated protein kinase 1 (Homo sapiens, UniProt P28482). As to the kind of experiment: Selectivity interaction (KinomeScan (DiscoverX)) EUB0000595a MAPK1. The following applies: at 10 µM.
Assay [11] concerns the target Serine/threonine-protein kinase 32B (Homo sapiens) (UniProt Q9NY57). In words: Selectivity interaction (KinomeScan (DiscoverX)) EUB0001619a STK32B. The following applies: at 1 µM.

The text below walks through data of ChEMBL document CHEMBL5465560, “Selectivity Literature for EUbOPEN Chemogenomic Library” (2024).

Chain of Bone morphogenetic protein receptor type-1B (O00238 whole entry): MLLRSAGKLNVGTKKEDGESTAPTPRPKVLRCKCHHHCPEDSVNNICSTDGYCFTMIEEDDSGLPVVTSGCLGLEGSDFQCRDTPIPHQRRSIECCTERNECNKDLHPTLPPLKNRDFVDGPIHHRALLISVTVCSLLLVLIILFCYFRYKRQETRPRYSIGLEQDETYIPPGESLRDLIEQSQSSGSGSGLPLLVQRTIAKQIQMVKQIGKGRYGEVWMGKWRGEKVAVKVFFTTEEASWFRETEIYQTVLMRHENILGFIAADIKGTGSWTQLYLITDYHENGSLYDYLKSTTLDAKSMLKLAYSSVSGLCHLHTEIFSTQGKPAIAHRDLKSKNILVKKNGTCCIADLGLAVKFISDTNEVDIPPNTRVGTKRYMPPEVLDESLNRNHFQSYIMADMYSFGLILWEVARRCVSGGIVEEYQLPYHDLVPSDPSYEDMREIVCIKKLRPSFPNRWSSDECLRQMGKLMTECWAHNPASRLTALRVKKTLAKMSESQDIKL
Chain of SRSF protein kinase 3 (Homo sapiens) (Q9UPE1 whole entry): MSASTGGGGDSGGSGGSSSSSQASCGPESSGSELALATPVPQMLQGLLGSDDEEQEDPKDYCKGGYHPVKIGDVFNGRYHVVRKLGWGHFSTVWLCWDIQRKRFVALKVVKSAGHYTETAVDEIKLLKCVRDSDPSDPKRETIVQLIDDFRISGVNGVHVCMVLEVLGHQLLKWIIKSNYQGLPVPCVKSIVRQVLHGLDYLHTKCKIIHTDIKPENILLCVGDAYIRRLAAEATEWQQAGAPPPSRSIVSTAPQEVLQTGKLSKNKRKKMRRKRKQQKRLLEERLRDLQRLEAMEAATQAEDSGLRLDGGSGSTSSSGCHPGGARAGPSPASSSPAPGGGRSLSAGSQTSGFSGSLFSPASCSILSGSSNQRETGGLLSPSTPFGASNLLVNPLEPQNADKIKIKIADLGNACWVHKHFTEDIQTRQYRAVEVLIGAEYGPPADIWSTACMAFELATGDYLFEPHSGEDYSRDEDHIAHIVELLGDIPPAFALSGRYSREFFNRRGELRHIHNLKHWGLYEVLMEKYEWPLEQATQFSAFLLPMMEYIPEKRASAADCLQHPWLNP
Chain of Serine/threonine-protein kinase 32B (Homo sapiens) (Q9NY57 whole entry): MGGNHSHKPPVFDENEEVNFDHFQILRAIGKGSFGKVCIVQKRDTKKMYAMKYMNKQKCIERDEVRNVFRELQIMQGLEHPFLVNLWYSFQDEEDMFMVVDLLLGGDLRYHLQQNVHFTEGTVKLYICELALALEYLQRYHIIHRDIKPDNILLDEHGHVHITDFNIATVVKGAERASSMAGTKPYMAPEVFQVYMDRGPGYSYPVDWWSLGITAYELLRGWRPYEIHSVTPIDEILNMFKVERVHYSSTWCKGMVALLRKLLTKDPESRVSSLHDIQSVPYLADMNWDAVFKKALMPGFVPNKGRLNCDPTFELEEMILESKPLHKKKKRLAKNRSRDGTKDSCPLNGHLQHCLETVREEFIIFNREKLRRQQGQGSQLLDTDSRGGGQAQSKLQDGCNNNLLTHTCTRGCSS
Chain of TGF-beta receptor type-2 (Homo sapiens) (P37173 whole entry): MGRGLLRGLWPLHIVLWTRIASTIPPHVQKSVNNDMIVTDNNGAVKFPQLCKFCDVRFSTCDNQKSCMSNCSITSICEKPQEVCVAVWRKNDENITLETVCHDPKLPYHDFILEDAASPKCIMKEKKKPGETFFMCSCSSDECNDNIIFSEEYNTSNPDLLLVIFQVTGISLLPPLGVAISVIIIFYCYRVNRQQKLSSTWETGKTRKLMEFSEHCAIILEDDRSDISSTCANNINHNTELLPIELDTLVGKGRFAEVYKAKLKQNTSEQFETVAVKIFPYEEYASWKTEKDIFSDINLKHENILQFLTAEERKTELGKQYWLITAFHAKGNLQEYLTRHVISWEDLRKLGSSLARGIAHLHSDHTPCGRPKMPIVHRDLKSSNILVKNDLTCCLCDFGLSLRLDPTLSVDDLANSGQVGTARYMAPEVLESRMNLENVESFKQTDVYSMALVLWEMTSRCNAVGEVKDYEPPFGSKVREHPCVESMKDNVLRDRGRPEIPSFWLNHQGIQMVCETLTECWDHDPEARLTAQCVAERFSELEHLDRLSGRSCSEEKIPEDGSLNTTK
Chain of Dual specificity mitogen-activated protein kinase kinase 1 (Q02750 whole entry): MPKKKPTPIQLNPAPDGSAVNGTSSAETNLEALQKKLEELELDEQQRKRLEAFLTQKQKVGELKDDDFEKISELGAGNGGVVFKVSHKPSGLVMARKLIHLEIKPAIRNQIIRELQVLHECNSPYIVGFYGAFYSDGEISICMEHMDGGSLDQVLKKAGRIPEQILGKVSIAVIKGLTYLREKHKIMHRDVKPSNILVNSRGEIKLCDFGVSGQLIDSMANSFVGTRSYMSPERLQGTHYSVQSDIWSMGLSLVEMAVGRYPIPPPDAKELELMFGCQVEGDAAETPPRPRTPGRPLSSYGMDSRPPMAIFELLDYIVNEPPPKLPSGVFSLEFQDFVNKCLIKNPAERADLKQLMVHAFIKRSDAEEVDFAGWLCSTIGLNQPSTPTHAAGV
Chain of Cyclin-dependent kinase 15 (Homo sapiens) (Q96Q40 whole entry): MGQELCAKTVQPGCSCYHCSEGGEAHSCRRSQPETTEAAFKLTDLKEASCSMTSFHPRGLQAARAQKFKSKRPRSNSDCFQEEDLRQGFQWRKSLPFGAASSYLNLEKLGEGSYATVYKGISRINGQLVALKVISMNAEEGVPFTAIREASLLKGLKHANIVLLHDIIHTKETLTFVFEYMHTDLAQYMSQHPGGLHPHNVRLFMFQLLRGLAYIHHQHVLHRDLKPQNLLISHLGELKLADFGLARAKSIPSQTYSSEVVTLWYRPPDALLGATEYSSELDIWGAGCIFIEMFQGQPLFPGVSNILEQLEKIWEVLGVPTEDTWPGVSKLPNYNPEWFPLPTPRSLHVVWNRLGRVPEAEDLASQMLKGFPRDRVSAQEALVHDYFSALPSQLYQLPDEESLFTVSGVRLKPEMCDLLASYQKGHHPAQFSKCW
Chain of Mitogen-activated protein kinase 1 (P28482 whole entry): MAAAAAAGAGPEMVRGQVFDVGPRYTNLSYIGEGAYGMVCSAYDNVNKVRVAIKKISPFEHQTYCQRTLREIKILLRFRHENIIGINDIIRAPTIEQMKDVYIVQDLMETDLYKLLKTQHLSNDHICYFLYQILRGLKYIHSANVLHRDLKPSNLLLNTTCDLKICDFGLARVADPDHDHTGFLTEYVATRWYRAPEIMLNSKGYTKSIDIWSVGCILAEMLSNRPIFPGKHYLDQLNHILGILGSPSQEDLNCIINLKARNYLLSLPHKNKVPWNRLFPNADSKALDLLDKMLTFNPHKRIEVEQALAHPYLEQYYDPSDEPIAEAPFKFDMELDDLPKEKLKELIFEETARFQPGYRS

In [1], `Cc1cc([C@@H](C)Nc2ccccc2C(=O)O)c2nc(N3CCOCC3)cc(=O)n2c1` [AZD-6482] had a % of control of 96%.

`CCN(CC)CCCCNc1ncc2cc(-c3cc(OC)cc(OC)c3)c(NC(=O)NC(C)(C)C)nc2n1` gave a % of control in assay [2] of 100%.

In turn, `CC(=O)Nc1cccc(-n2c(=O)n(C3CC3)c(=O)c3c(Nc4ccc(I)cc4F)n(C)c(=O)c(C)c32)c1` returned a % of control in assay [3] of 119%.

Turning to `C=CC(=O)Nc1cc(-n2c(=O)ccc3cnc4ccc(-c5ccc(NS(C)(=O)=O)cc5)cc4c32)ccc1C`, the % of control in [4] (at 1 µM) is 100%; in assay [4] (at 10 µM), 80%.

For `O=C(NOC[C@H](O)CO)c1ccc(F)c(F)c1Nc1ccc(I)cc1F`, the % of control in assay [5] and in assay [6] was 100% each time.

The molecule `CC[C@@H]1[C@H](F)C(=O)N[C@@H]1COc1nccc2cc(C(N)=O)c(OC)cc12` [ZIMLOVISERTIB] displayed a % of inhibition in assay [7] of 20.4%.

Turning to `COc1cc(N(C)c2ccnc3ccc(C(F)(F)F)cc23)cc(OC)c1OC`, the % binding in assay [8] stood at 85%.

Take `CN(C(=O)c1cnn2cccnc12)c1cc2c(cc1N1CCOCC1)C(=O)N(C[C@@H](F)C(C)(C)O)C2`: the dTM in [9] is -0.6 K.

Molecule `COCC(=O)NC/C=C/c1ccc2ncnc(Nc3ccc(Oc4ccc(C)nc4)c(C)c3)c2c1` [CP-724714] gave a % of control in assay [10] of 100%.

In turn, `N#Cc1cccc(-c2c[nH]c3ncnc(N4CCOCC4)c23)c1` came in with a % of control in assay [11] of 53%.
